This is an account of results in patent publication US20160215306A1 (priority 2013, published 2016).

In one data set the test system is Cellulase T. reesei. In kind it is biochemical.
Data set [1] concerns recombinant β-glucosidase (GO16L, IFF). Put plainly: Cleavage of glucose from resveratrol glucosides by recombinant β-glucosidase. In kind it is biochemical. As to conditions: 1 - β-glucosidase (IFF).
The test system of another data set is Glusulase. Kind of data set: Cleavage of glucose from resveratrol glucosides by Glusulase. As to conditions: 4 - Glusulase. In kind it is biochemical.
For data set [2] the following is noted: mouse, in vivo.
The test system of the next data set is Cellobiase from A. niger. In kind it is biochemical.
Data set [3] relates to Depol™ cellulase (Biocatalysts). Kind of data set: Cleavage of glucose from resveratrol glucosides by Depol cellulase. In kind it is biochemical. Particulars: 2 - Depol IFF (cellulase).
The subject of data set [4] is β-galactosidase from A. oryzae. Put plainly: Cleavage of glucose from resveratrol glucosides by β-galactosidase. In kind it is biochemical. Particulars: 6 - β-galactosidase A. oryzae.
In the next data set the test system is β-glucuronidase. Put plainly: Cleavage of glucose from resveratrol glucosides by β-glucuronidase. In kind it is biochemical. Particulars: 7 - β-glucuronidase.
Data set [5] concerns the target T1, EXG1 (Saccharomyces cerevisiae, UniProt P23776).
T1 sequence (P23776 41-448): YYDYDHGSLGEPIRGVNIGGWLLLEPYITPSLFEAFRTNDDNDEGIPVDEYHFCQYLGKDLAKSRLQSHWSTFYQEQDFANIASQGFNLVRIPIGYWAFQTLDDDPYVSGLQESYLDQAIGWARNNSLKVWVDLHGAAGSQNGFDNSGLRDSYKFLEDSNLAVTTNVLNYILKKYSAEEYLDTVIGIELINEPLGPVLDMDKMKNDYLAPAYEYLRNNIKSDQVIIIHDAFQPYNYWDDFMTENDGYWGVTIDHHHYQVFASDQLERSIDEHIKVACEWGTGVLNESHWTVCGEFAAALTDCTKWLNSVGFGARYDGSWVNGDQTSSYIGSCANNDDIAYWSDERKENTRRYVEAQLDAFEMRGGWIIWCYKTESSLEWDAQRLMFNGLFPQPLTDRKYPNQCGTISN
Kind of data set: Cleavage of glucose from resveratrol glucosides by broth enriched with EXG1. In kind it is biochemical, S. cerevisiae. Particulars: 8 - EXG1 broth.

Data set [6] can be described thus: Solubility in water of purified compounds (H2O saturation, HPLC quantification). As to conditions: for solubility at 1 min: water, thermodynamic from solid.
Data set [7] is described as follows: Separate experiment: plasma levels after single oral or IV administration, LC-MS. As to conditions: for Plasma level of the administered compound after IV administration / Plasma level of the administered compound after oral administration: single dose 10 mL/kg, FIG. 21.
For data set [8] the following is noted: in water; cited from earlier work.
Data set [9] has as its system EXG1. Put plainly: Cleavage of piceid by S. cerevisiae cells with or without EXG1. Particulars: second S. cerevisiae strain (lacking EXG1), 125 mg/L piceid, overnight.
For data set [10], the target named is EXG1 (Saccharomyces cerevisiae, UniProt P23776). Described as above. Particulars: S. cerevisiae cells with functional EXG1, 125 mg/L piceid, overnight.
Data set [11] in a line: Pharmacokinetic profiling: plasma levels after single IV or oral administration. In kind it is in vivo, CD1 male mice.
[12] abbreviates: male, CD1, mouse, plasma, intravenous, 10 mg/kg.

Converted amounts (≈) assume the structure as drawn. Like-named read-outs stand apart in the source and are kept apart here.

`OC[C@H]1O[C@@H](Oc2ccc(/C=C/c3cc(O)cc(O[C@@H]4O[C@H](CO)[C@@H](O)[C@H](O)[C@H]4O)c3)cc2)[C@H](O)[C@@H](O)[C@@H]1O` (relative stereo) [3,4′-resveratrol diglucoside, trans-resveratrol-3,4′-di-O-β-glucoside]: the “% cleavage in conditions tested” value in the data set on Cellulase T. reesei is recorded as “✓ (key: ✓ = >95%; ♦ = 50-95%; • = 5-49%; X = 0%)”; in data set [1], “✓ (✓ = >95%)”; with Glusulase, “✓ (✓ = >95%)”; in the data set with Cellobiase from A. niger, “✓ (key: ✓ = >95%; ♦ = 50-95%; • = 5-49%; X = 0%)”; in data set [3], “✓ (✓ = >95%)”; in data set [4], “✓ (✓ = >95%)”. The “% cleavage in conditions tested” value was “✓ (✓ = >95%)” with β-glucuronidase and “♦ (♦ = 50-95%)” on EXG1 [5]. Also, in data set [2] (po), the “Plasma level relative to 3,5-resveratrol diglucoside, oral” value is given as “approximately 3 fold”. Further, the “Time within which compound was cleared from plasma, oral” value in data set [2] (po) is recorded as not above 1 h.

As to `OC[C@H]1O[C@@H](Oc2ccc(/C=C/c3cc(O)cc(O)c3)cc2)[C@H](O)[C@@H](O)[C@@H]1O` (relative stereo) [Resveratroloside, trans-resveratrol-4′-O-β-glucoside], the “% cleavage in conditions tested” value in data set [1] was “✓ (✓ = >95%)”; with Glusulase, “✓ (✓ = >95%)”; in [3] it was “✓ (✓ = >95%)”; in data set [4], “✓ (✓ = >95%)”; in the data set with β-glucuronidase it was “✓ (✓ = >95%)”; at EXG1 [5], “• (• = 5-49%)”. Also, in data set [6] (in nanopure H2O, HPLC), the “Solubility mg/L (in house)” value is on record as 1,300 mg/L. The “Plasma level of the administered compound after IV administration” value in [7] was “low”. In addition, the “Plasma levels of resveratrol after administration of the glucoside” value in [7] (oral and IV administration) is “a sharp increase in resveratrol”. Moreover, the “Plasma level of the administered compound after oral administration” value (“Plasma level … after oral administration” below) in data set [7] is given as “low”.

Broadly, the solubility is the concentration that dissolves in the medium under given conditions. For the compound `OC[C@H]1O[C@@H](Oc2cc(O)cc(C=Cc3ccc(O)cc3)c2)[C@H](O)[C@@H](O)[C@@H]1O` [Piceid, resveratrol 3-O-β-D-glucopyranoside], in data set [8], the “Solubility mg/L (Literatrure)” value is listed as 69 mg/L (≈ 177 µM). Further, the “% cleavage in conditions tested” value in the data set with Cellulase T. reesei is listed as “✓ (key: ✓ = >95%; ♦ = 50-95%; • = 5-49%; X = 0%)”; in data set [1], “✓ (✓ = >95%)”; with Glusulase it was “✓ (✓ = >95%)”; in the data set on Cellobiase from A. niger, “✓ (key: ✓ = >95%; ♦ = 50-95%; • = 5-49%; X = 0%)”; in [3], “✓ (✓ = >95%)”; in data set [4], “✓ (✓ = >95%)”. In addition, the figures for the “% cleavage in conditions tested” value in the data set on β-glucuronidase and at EXG1 [5] were “✓ (✓ = >95%)” and “♦ (♦ = 50-95%)”, respectively. For the same compound, the Piceid cleaved result with EXG1 [9] is listed as “less than 0.5%”. Also, on EXG1 [10], the “Piceid cleaved, yielding resveratrol” value is on record as “approximately 25%”. Moreover, the “Detection of administered compound in plasma after IV administration” value in data set [11] (10 mg/kg IV) is “detectable”. Further, the “Detection of administered compound in plasma after oral administration” value in data set [11] (10 mg/kg PO) is “detectable”. For the same compound, in [11] (after IV and oral administration), the “Systemic conversion to trans-resveratrol” value is on record as “converted to trans-resveratrol systemically”. Also, in data set [11] (male, CD1, mouse, plasma, piceid 10 mg/kg IV, 0.25 h, read-out: Piceid (Detection of piceid) in plasma, IV), the concentration at 0.25 h is 2830 ng/mL. For the same compound, the concentration at 0.5 h in data set [11] (male, CD1, mouse, plasma, piceid 10 mg/kg IV, 0.5 h, read-out: Piceid (Detection of piceid) in plasma, IV) worked out at 320 ng/mL; in data set [11] (male, CD1, mouse, plasma, piceid 10 mg/kg PO, 0.5 h, read-out: Piceid (Detection of piceid) in plasma, PO), 5 ng/mL. The concentration at 1 h in data set [11] (male, CD1, mouse, plasma, piceid 10 mg/kg IV, read-out: Piceid (Detection of piceid) in plasma, IV) was 50 ng/mL; in [11] (male, CD1, mouse, plasma, piceid 10 mg/kg PO, read-out: Piceid (Detection of piceid) in plasma, PO), 8 ng/mL. Also, in data set [11] (male, CD1, mouse, plasma, piceid 10 mg/kg PO, 2 h, read-out: Piceid (Detection of piceid) in plasma, PO), the concentration at 2 h stood at 4 ng/mL. Besides, the solubility at 1 min in data set [6] lay within 200 to 300 µg/mL (≈ 512 to 768 µM). Besides, the “Plasma level … after oral administration” value in [7] is given as “detected at a low level”. In addition, the “Piceid detected in plasma after IV administration” value in data set [7] (piceid 17.1 mg/kg IV) is listed as “approximately 900 ng/mL”.

On to `Oc1ccc(C=Cc2cc(O)cc(O)c2)cc1` [Resveratrol, 3,5,4′-trihydroxy-stilbene], for which, in data set [8], the “Solubility mg/L (Literatrure)” value was 15 to 30 mg/L. In [11] (setting [12]), this compound gave a concentration at 0.25 h of 40 ng/mL and a concentration at 0.5 h of 4 ng/mL. Further, the solubility at 1 min in data set [6] is 30 to 40 µg/mL (≈ 131 to 175 µM). For the same compound, in data set [7], the “Plasma level of the administered compound after IV administration” value is given as “an increase in resveratrol plasma levels appeared 4 h post-administration” and the “Plasma level … after oral administration” value is listed as “cleared quickly”.

“cis/trans-resveratrol-3,5-di-O-β-glucoside [3,5-resveratrol diglucoside]”: the “% cleavage in conditions tested” value is “✓ (key: ✓ = >95%; ♦ = 50-95%; • = 5-49%; X = 0%)” in the data set with Cellulase T. reesei; “✓ (✓ = >95%)” in data set [1]; “✓ (✓ = >95%)” in the data set with Glusulase; “✓ (key: ✓ = >95%; ♦ = 50-95%; • = 5-49%; X = 0%)” in the data set with Cellobiase from A. niger; “✓ (✓ = >95%)” in [3]; “✓ (✓ = >95%)” in [4]. The “% cleavage in conditions tested” value with β-glucuronidase is listed as “✓ (✓ = >95%)”; on EXG1 [5], “• (• = 5-49%)”. For the same compound, the “Time of highest plasma level of administered compound, IV” value in [2] (iv) was 1 h. Besides, the “Time within which plasma level declined, IV” value in data set [2] (iv) was not above 4 h. Also, in data set [2] (po), the “Plasma level … after oral administration” value is given as “high levels”. Besides, in data set [2] (po), the “Time within which plasma level declined, oral” value is recorded as not above 3 h.
